Results on five compounds are retold here after US20100041900A1, “Isolation of lactam compound from adlay bran and its use on anti-proliferative cancer cells” (KUANG TA FOODS CO., LTD, priority 2008, published 2010).

Common to all, as to assay type: cell-based
One assay deals with A549 (human lung cancer). In words: MTT assay, growth inhibition of A549 cells. The conditions noted are these: for IC50: Homo sapiens. The procedure:
(§1) The cell lines A549 (human lung cancer), HT-29 (human colon carcinoma), and COLO 205 (human colon carcinoma) were obtained from the American Type Culture Collection (ATCC) (Rockville, Md.). These cell lines were maintained in DMEM containing 10% heat-inactivated fetal bovine serum, 100 units/mL of penicillin and 100 μg/mL of streptomycin, and were kept at 37° C. in a 5% CO2 incubator.
(§2) MTT assay was performed as described by Hansen et al. (Hansen et al., J. Immunol. Methods 119, 203-210, 1989). A549 (1.5×10^3 cells/well), HT-29 (2×10^3 cells/well), and COLO 205 (3×10^3 cells/well) were seeded in 96-well plates and grown overnight. Cells were then incubated in 10% FBS medium containing different amounts of adlay bran subfractions for 48 hours. At the end of incubation, media were replaced with 100 μL of reagent (MTT, 1 mg/mL) and incubated in a 5% CO2 incubator at 37° C. for another 2 h. The medium was then discarded and 100 μL of DMSO was added to each well. The absorbance was measured at 570 nm by scanning with a micro-plate reader (Molecular Devices, Calif.). Each sample was analyzed six times, and the values were averaged. For the determination of IC50 (the concentration of each substance required to inhibit cell proliferation by 50%), each sample was measured at five different concentrations by the MTT test. […] The IC50 values of each sample were collected from three replicates, and then mean±standard deviation values were obtained for the results of the IC50 assay.
(In general: Tetrazolium dyes change colour on reduction, which living cells bring about.)

For assay [1], the system named is HT-29 (human colon carcinoma). In words: MTT assay, growth inhibition of HT-29 cells. The note with it: 48 hours incubation, mean ± SD of three replicates; for IC50: Homo sapiens, HT-29, 48 h, read-out: IC50 (concentration required for 50% growth inhibition of cancer cells), HT-29. The procedure: as §1, §2
Assay [2] has as its system COLO 205 (human colon carcinoma). In words: MTT assay, growth inhibition of COLO 205 cells. The note with it: 48 hours incubation, mean ± SD of three replicates; for IC50: Homo sapiens, COLO 205, 48 h, read-out: IC50 (concentration required for 50% growth inhibition of cancer cells), COLO 205. The procedure:
as §1, §2

[3] abbreviates: A549, 48 h, A549 cells, 48 hours incubation, MTT, mean ± SD of three replicates, read-out: IC50 (concentration required for 50% growth inhibition of cancer cells), A549.
Where [4] appears, read: A549, summary range over all five compounds and all three cell lines A549, HT-29, COLO 205, read-out: IC50 values against A549, HT-29 and COLO 205 cells (overall range).

≈ marks a conversion by molar mass, not a printed value. Where two headings read alike, the source gives them in different places.

Turning to `COC(=O)CC1(O)C(=O)Nc2ccccc21` (stereo not shown) [Compound 5, methyl dioxindole-3-acetate], the IC50 in the assay on A549 (human lung cancer) (setting [3]) was 42.6 ± 2.31 µg/mL (≈ 193 µM); in the assay on A549 (human lung cancer) (setting [4]), 28.6 to 72.6 µg/mL (≈ 129 to 328 µM); in assay [1], 48.9 ± 3.83 µg/mL (≈ 221 µM); in assay [2], 45.5 ± 6.42 µg/mL (≈ 206 µM).
Taken in the same sequence, the figures for `O=C1C[C@]2(CO1)C(=O)Nc1ccccc12` [Compound 1, coixspirolactam A] were 37.1 ± 1.93 µg/mL (≈ 183 µM), 28.6 to 72.6 µg/mL (≈ 141 to 357 µM), 34.4 ± 3.53 µg/mL (≈ 169 µM) and 35.9 ± 4.65 µg/mL (≈ 177 µM).
`CC1OC(=O)C[C@@]12C(=O)Nc1ccccc12` (stereo partly shown) [Compound 3, coixspirolactam C]: the “IC50 (concentration required for 50% growth inhibition of cancer cells), A549” value in the assay on A549 (human lung cancer) (A549 cells, 48 hours incubation, MTT, mean ± SD of three replicates) is 31.75 ± 2.58 µg/mL. In addition, in assay [1], the “IC50 (concentration required for 50% growth inhibition of cancer cells), HT-29” value came out at 37.55 ± 3.08 µg/mL. The “IC50 (concentration required for 50% growth inhibition of cancer cells), COLO 205” value in assay [2] stood at 48.12 ± 4.15 µg/mL.
On to `CC1OC(=O)C[C@@]12C(=O)Nc1ccccc12` (stereo partly shown) [Compound 2, coixspirolactam B], for which the IC50 was 28.6 ± 2.04 µg/mL (≈ 132 µM) in the assay on A549 (human lung cancer) (setting [3]), 28.6 to 72.6 µg/mL (≈ 132 to 334 µM) with A549 (human lung cancer) (setting [4]), 32.7 ± 2.29 µg/mL (≈ 151 µM) in assay [1] and 41.3 ± 3.52 µg/mL (≈ 190 µM) in assay [2].
On to `COC(=O)[C@H]1Cc2ccccc2NC1=O` [Compound 4, coixlactam], for which the IC50 with A549 (human lung cancer) (setting [3]) is 65 ± 3.32 µg/mL (≈ 317 µM); in the assay on A549 (human lung cancer) (setting [4]), 28.6 to 72.6 µg/mL (≈ 139 to 354 µM); in assay [1] it was 52.6 ± 2.64 µg/mL (≈ 256 µM); in assay [2] it was 72.6 ± 5.31 µg/mL (≈ 354 µM).
